Measurements reported in patent US10774082B2, “Quinazoline compound” (Astellas Pharma Inc., priority 2017, dated 2020).
Like-named read-outs stand apart in the source and are kept apart here.

Assays:
pERK in NCI-H1373 tumor = assay: Intratumoral pERK inhibitory action in NCI-H1373 tumor of nude mice (TR-FRET); assay type: in vivo, mouse; conditions: for inhibition at 10 mg/kg / pERK inhibition (%): 10 mg/kg; for inhibition at 3 mg/kg: read-out: pERK inhibition (%)
Method: Evaluation of Intratumoral pERK Inhibitory Action
The phosphorylation amount of ERK in tumor sample after administration of test compound was examined by using pERK measurement kit (Advanced ERK phospho-T202/Y204 kit, Cisbio co., Ltd) through a TR-FRET method.
2.0 to 5.0×10^6 NCI-H1373 cells were prepared by using a solution in which an equivalent amount of Matrigel (Becton. Dickinson and Company) was added to PBS, were injected subcutaneously in a volume of 100 μL and planted to male nude mice of 4-5 weeks old (CAnN.Cg-Foxn 1 nu/CrlCrlj (nu/nu), Charles River Laboratories Japan, Inc.), and then the male nude mice were used for the test 15 to 26 days later. The test was conducted with three mice in a solvent group and three mice in a test compound administration group, and the test compounds were prepared by using a solvent such that the dosage thereof is as indicated in Table 4. The test compound was administered subcutaneously or orally. For subcutaneous administration, physiological saline supplemented with equimolar hydrochloric acid was used as a solvent. For oral administration, 6% 2-hydroxypropyl-β-cyclodextrin (Sigma-Aldrich Co. LLC) was used as a solvent. Six hours after the administration, a tumor was excised from a cervical dislocated mouse under isoflurane anesthesia, and a part thereof was put into a 2 mL Eppendorf tube and frozen using liquid nitrogen. The tumor sample was stored in a deep freezer at −80° C. until it was subjected to the pERK measurement test.
500 μL of lysis buffer 1 (Phospholysis buffer [Cisbio Co., Ltd], Complete EDTA free [Roche Diagnostics K.K.], Phosphatase inhibitor cocktail 2 [Sigma-Aldrich Co. LLC]) and one bead (5 mm YTZ ball [Nikkato Corp.]) was added to the tumor sample, and crushed (frequency 25/s for 3 minutes) by using Tissue Lyser II (QIAGEN GmbH). The whole amount was transferred to a new tube and centrifuged (20,400×g for 10 minutes, 4° C.) by using a micro amount high speed cooling centrifuge so as to obtain a tumor lysate which is a supernatant. Protein quantification of tumor lysate was performed by using a protein quantification kit (Pierce 660 nm Protein Assay Kit [Thermo Fisher Scientific Inc.]), and each sample was diluted by using lysis buffer 2 (Phosphorysis buffer [Cisbio Co., Ltd], Blocking Agent [attached to pERK measurement kit]) such that the amount thereof is to be a final concentration of 0.5 μg/μL.
Each of p-ERK1/2 Cryptate antibody and p-ERK1/2 d2 antibody (attached to pERK measurement kit) was diluted 20-fold with each detection buffer (attached to pERK measurement kit), and thereby a mixed solution of these two types of antibodies was prepared. A mixed solution of antibody was added to a 384 well plate at a volume of 4 μL/well. Further, tumor lysate diluted to 0.5 μg/μL was added at a volume of 16 μL/well. After standing at room temperature in a wet box for about 17 hours, the fluorescence intensity at 620 nm and 665 nm was measured under the condition of excitation wavelength of 337 nm by using EnVision 2103 Multilabel Reader (PerkinElmer Co., Ltd.).

NCI-H1373 cells = assay: Anchorage-independent cell proliferation inhibitory action, NCI-H1373 spheroid three-dimensional culture; assay type: cell-based, Human; conditions: read-out: IC50 (anchorage-independent cell proliferation inhibition)
How it was run: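 KRAS G12C NCI-H1373 cells were grown as spheroids in low-attachment U-bottom wells and treated the next day with compound, six points from 1,000 to 0.3 nM final. After six days at 37°C, viability was read by CellTiter-Glo luminescence. IC50 was fitted by Sigmoid-Emax regression, with DMSO set as 0% and cell-free medium as 100% inhibition.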

NCI-H1373 tumor = assay: Antitumor effect in NCI-H1373 tumor-bearing mouse; assay type: in vivo; conditions: 10 mg/kg orally once a day for 13 or 14 days
Method: Evaluation of Antitumor Effect in Human KRAS G12C Mutation Positive Non-Small Cell Lung Cancer Strain NCI-H1373 Tumor-Bearing Mouse
A cell suspension prepared per 3.0×10^7/mL by suspending NCI-H1373 cells in PBS, an equivalent amount of Matrigel (Becton, Dickinson and Company) was added thereto, and the cell suspension was subcutaneously planted in a volume of 100 μL to male nude mice of 4-5 weeks old (CAnN.Cg-Foxnlnu/CrlCrlj (nu/nu), Charles River Laboratories Japan, Inc.). Approximately 2 weeks after planting, groups were divided so that tumor volume and body weight between the groups were almost equivalent to each other, and administration of the test compound was started from the next day. The test was conducted with five mice in a solvent group and five mice in a test compound administration group, and an aqueous solution of 6% 2-hydroxypropyl-β-cyclodextrin (Sigma-Aldrich Co. LLC) was orally administered to the solvent group and an aqueous solution of 6% 2-hydroxypropyl-β-cyclodextrin which the test compound (10 or 40 mg/kg) was mixed was orally administered to the test compound administration group. The administration was performed once a day for 13 or 14 days, and tumor diameter and volume were measured twice a week. For calculation of tumor volume, the following formula was used. [tumor volume (mm^3)]=[major diameter (mm) of tumor]×[minor diameter (mm) of tumor]^2×0.5
The tumor growth inhibition rate (%) by the test compound was calculated by setting the tumor volume of the test compound administration group on the day before the administration started as 100% inhibition, and the tumor volume of the solvent group on the last day of administration as 0% inhibition. In addition, in a case where the tumor volume of the test compound administration group was lower than the tumor volume on the day before the administration started, the tumor regression rate (%) of the test compound was calculated by setting the tumor volume on the day before the administration started as 0% regression, and the tumor volume 0 as 100% regression.

[1] = Mus musculus, NCI-H1373, po, 6 h, Oral administration, tumor six hours after administration
[2] = NCI-H1373 spheroid, six days, CellTiter Glo
[3] = Oral administration, tumor six hours after administration
[4] = Homo sapiens, NCI-H1373, 144 h, NCI-H1373 spheroid, six days, CellTiter Glo
[5] = Mus musculus, NCI-H1373, sc, 6 h, Subcutaneous administration, tumor six hours after administration
[6] = Mus musculus, NCI-H1373, sc, 6 h

Compound	inhibition at 10 mg/kg (pERK in NCI-H1373 tumor; [1])	IC50 (NCI-H1373 cells; [4])	also measured
C=CC(=O)N1CC2(CCN(c3nc(OC4CCN(CCOC)CC4)nc4c(OCC(F)(F)F)c(-c5c(C)ccc6[nH]ncc56)c(C5CC5)cc34)CC2)C1 [Ex 25]	66%	–	–
C=CC(=O)N1CC2(CCN(c3nc(OC4CCN(CC(C)(C)O)CC4)nc4c(OCC(F)(F)F)c(-c5c(C)ccc6[nH]ncc56)c(C=C)cc34)CC2)C1 [Example 40]	–	–	IC50 (NCI-H1373 cells; [2]): 5.1 nM; pERK inhibition (%) (pERK in NCI-H1373 tumor; [3]): 58%; Antitumor effect: tumor regression rate (NCI-H1373 tumor): 15% regression
C=CC(=O)N1CC2(CCN(c3nc(OC4CCN(Cc5ccccn5)CC4)nc4c(OCC(F)(F)F)c(-c5c(C)ccc6[nH]ncc56)c(C=C)cc34)CC2)C1 [Example 56]	53%	21 nM	–
C=CC(=O)N1CC2(CCN(c3nc(OC[C@@H]4CCCN4C)nc4c(OCC(F)F)c(-c5c(C)ccc6[nH]ncc56)c(C5CC5)cc34)CC2)C1 [Ex 4]	–	3.4 nM	inhibition at 1 mg/kg (pERK in NCI-H1373 tumor; [5]): 58%
C=CC(=O)N1CC2(CCN(c3nc(OC4CCN(C5COC5)CC4)nc4c(OCC)c(-c5c(C)ccc6[nH]ncc56)c(C5CC5)cc34)CC2)C1 [Example 34]	54%	7.5 nM	–
C=CC(=O)N1CC2(CCN(c3nc(N4CCN(C)CC4)nc4c(OCC(F)(F)F)c(-c5c(C)ccc6[nH]ncc56)c(C=C)cc34)CC2)C1 [Example 50]	63%	16 nM	–
C=CC(=O)N1CC2(CCN(c3nc(OC4CCN(C)CC4)nc4c(OCC(F)F)c(-c5c(C)ccc6[nH]ncc56)c(C5CC5)cc34)CC2)C1 [Ex 3]	–	4.7 nM	inhibition at 1 mg/kg (pERK in NCI-H1373 tumor; [5]): 57%
C=CC(=O)N1CC2(CCN(c3nc(OC[C@@H]4CCCN4C)nc4c(OC5CCC5)c(-c5c(C)ccc6[nH]ncc56)c(C=C)cc34)CC2)C1 [Example 15]	–	–	IC50 (NCI-H1373 cells; Homo sapiens, NCI-H1373, 144 h): 14 nM; inhibition at 3 mg/kg (pERK in NCI-H1373 tumor; [6]): 53%
C=CC(=O)N1CC2(CCN(c3nc(N4CC(N(C)C)C4)nc4c(OCC(F)(F)F)c(-c5c(C)ccc6[nH]ncc56)c(C=C)cc34)CC2)C1 [Example 65]	68%	27 nM	–
C=CC(=O)N1CC2(CCN(c3nc(OC4CCN(C5CCOCC5)CC4)nc4c(OCC(F)(F)F)c(-c5c(C)ccc6[nH]ncc56)c(C=C)cc34)CC2)C1 (single isomer, unassigned) [Ex 39]	43%	4.3 nM	–
C=CC(=O)N1CC2(CCN(c3nc(OC[C@@H]4CCCN4C)nc4c(OCC)c(-c5c(C)ccc6[nH]ncc56)c(C=C)cc34)CC2)C1 [Example 16]	–	–	IC50 (NCI-H1373 cells; Homo sapiens, NCI-H1373, 144 h): 10 nM; inhibition at 3 mg/kg (pERK in NCI-H1373 tumor; [6]): 51%
C=CC(=O)N1CC2(CCN(c3nc(OC4CCN(CCCOC)CC4)nc4c(OCC(F)(F)F)c(-c5c(C)ccc6[nH]ncc56)c(C5CC5)cc34)CC2)C1 [Ex 28]	46%	–	–
C=CC(=O)N1CC2(CCN(c3nc(OC4CCN(C)CC4F)nc4c(OCC(F)(F)F)c(-c5c(C)ccc6[nH]ncc56)c(C=C)cc34)CC2)C1 (stereo not drawn) [Example 52]	68%	16 nM	–
C=CC(=O)N1CC2(CCN(c3nc(OC4CCN(C5COC5)CC4)nc4c(OCC(F)(F)F)c(-c5c(C)ccc6[nH]ncc56)c(C=C)cc34)CC2)C1 [Example 33]	71%	8.7 nM	–
C=CC(=O)N1CC2(CCN(c3nc(OC4CCN(C)CC4)nc4c(OCC)c(-c5c(C)ccc6[nH]ncc56)c(C5CC5)cc34)CC2)C1 [Ex 2]	–	6.2 nM	inhibition at 1 mg/kg (pERK in NCI-H1373 tumor; [5]): 54%
C=CC(=O)N1CC2(CCN(c3nc(OC4CCN(CCOC)CC4)nc4c(OCC(F)(F)F)c(-c5c(C)ccc6[nH]ncc56)c(C=C)cc34)CC2)C1 [Ex 26]	50%	–	–
C=CC(=O)N1CC2(CCN(c3nc(OC4CCN(CCOC)CC4)nc4c(OCC(F)F)c(-c5c(C)ccc6[nH]ncc56)c(C5CC5)cc34)CC2)C1 [Example 32]	55%	7.1 nM	–
C=CC(=O)N1CC2(CCN(c3nc(OC4CCN(CCOC)CC4)nc4c(OCC(F)(F)F)c(-c5c(C)ccc6[nH]ncc56)c(C5CC5)cc34)CC2)C1 [Example 35]	–	–	IC50 (NCI-H1373 cells; [2]): 2.5 nM; pERK inhibition (%) (pERK in NCI-H1373 tumor; [3]): 68%; Antitumor effect: tumor regression rate (NCI-H1373 tumor): 72% regression
C=CC(=O)N1CC2(CCN(c3nc(OC4CCN(CCOCC)CC4)nc4c(OCC(F)(F)F)c(-c5c(C)ccc6[nH]ncc56)c(C=C)cc34)CC2)C1 [Example 37]	–	–	IC50 (NCI-H1373 cells; [2]): 8.8 nM; pERK inhibition (%) (pERK in NCI-H1373 tumor; [3]): 63%; Antitumor effect: tumor regression rate (NCI-H1373 tumor): 58% regression
C=CC(=O)N1CC2(CCN(c3nc(OC4CCN(CC)CC4)nc4c(OCC)c(-c5c(C)ccc6[nH]ncc56)c(C=C)cc34)CC2)C1 [Ex 7]	–	11 nM	inhibition at 3 mg/kg (pERK in NCI-H1373 tumor; Mus musculus, NCI-H1373, sc, 6 h, Subcutaneous administration, 3 mg/kg, tumor six hours after administration): 59%
C=CC(=O)N1CC2(CCN(c3nc(OC4CCN(C5CCOCC5)CC4)nc4c(OCC(F)(F)F)c(-c5c(C)ccc6[nH]ncc56)c(C=C)cc34)CC2)C1 [Ex 30]	56%	5.4 nM	–
C=CC(=O)N1CC2(CCN(c3nc(OC4CCN(CCOCC)CC4)nc4c(OCC(F)(F)F)c(-c5c(C)ccc6[nH]ncc56)c(C=C)cc34)CC2)C1 [Example 29]	62%	10 nM	–
C=CC(=O)N1CCN(c2nc(OC3CCN(C)CC3)nc3c(F)c(-c4c(C)ccc5[nH]ncc45)c(Cl)cc23)CC1 [Compound C, reference compound]	–	320 nM	inhibition at 30 mg/kg (pERK in NCI-H1373 tumor; Mus musculus, NCI-H1373, sc, 6 h, Subcutaneous administration, 30 mg/kg, tumor six hours after administration): 54%
C=CC(=O)N1CC2(CCN(c3nc(OC4CCN(C)CC4)nc4c(OCC)c(-c5c(C)ccc6[nH]ncc56)c(C=C)cc34)CC2)C1 [Ex 24]	–	6.1 nM	inhibition at 40 mg/kg (pERK in NCI-H1373 tumor; Mus musculus, NCI-H1373, po, 6 h, Oral administration, 40 mg/kg, tumor six hours after administration): 72%
